For orientation: EC50 means the concentration giving half of the maximal effect.

Holding throughout (type): cell-based
In one assay the target is T1, mSTING (Mus musculus, UniProt Q3TBT3).
T1 sequence (Q3TBT3 1-378): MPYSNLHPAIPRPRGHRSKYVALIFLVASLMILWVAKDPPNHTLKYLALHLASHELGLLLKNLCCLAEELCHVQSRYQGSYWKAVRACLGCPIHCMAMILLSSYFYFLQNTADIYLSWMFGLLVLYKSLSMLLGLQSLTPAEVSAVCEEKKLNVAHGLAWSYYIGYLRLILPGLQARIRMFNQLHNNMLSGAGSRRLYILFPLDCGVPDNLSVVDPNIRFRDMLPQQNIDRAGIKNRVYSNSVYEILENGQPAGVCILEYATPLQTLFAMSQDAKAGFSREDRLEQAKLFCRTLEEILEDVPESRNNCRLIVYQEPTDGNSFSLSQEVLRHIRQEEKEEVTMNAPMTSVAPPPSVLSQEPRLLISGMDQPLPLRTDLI
Description: THP1-Dual KI-mSTING reporter assay. The settings on record: THP1-Dual KI-mSTING cells, 24 hours; read-out: Reporter assay EC50 (nM) THP-1 mSTING. Further details: host or cells: THP1-Dual KI-mSTING (from THP1-Dual KO-STING). The procedure: (§1) The activities of the STING agonists to activate human or mouse STING pathways were evaluated in THP-1-Dual™, THP1-Dual™ KI-hSTING-R232, THP1-Dual™ KI-hSTING-H232 Cells and THP1-Dual™ KI-mSTING Cells. THP-1-Dual™ cells contains hSTING-HAQ haplotype and can be used to evaluate the activity of STING agonists by monitoring the activation of NF-κB pathway and the […] (IFN regulatory factor) pathways. THP1-Dual™ KO-STING cells were generated from THP1-Dual™ cells by stable knockout of the endogenous HAQ STING gene. THP1-Dual™ KI-hSTING-R232 cells, THP1-Dual™ KI-hSTING-H232 cells and THP1-Dual™ KI-mSTING cells were generated by transfecting THP1-Dual™ KO-STING cells with hSTING-R232 or hSTING-H232 or mSTING. Stimulating these reporter cells with a STING agonist activates TRF pathway and induces the production of a secreted Lucia luciferase in the cell culture medium, which can be determined using QUANTI-Luc™ reagent.
(§2) THP-1-Dual™, THP1-Dual™ KI-hSTING-R232, THP1-Dual™ KI-hSTING-H232 and THP1-Dual™ KI-mSTING reporter cells were purchased from Invivogen and maintained in manufacture recommended culture medium with required supplemental antibiotics. On the day of assay, the cells were harvested with Accutase and counted by the Vi-CELL Cell Viability Analyzers. Cells were resuspended in HEK blue detection medium and a total of 10000 cells were seeded in each well of a 384-well flat bottom plate. Serial dilutions of STING agonists free drugs (1:3 serial dilution starting from 5 uM) was added into treatment wells. After incubation at 37° C. in a CO2 incubator for 24 hours, 20 μl of cell culture medium per well was transferred into a 384-well white (opaque) plate. 50 μl of QUANTI-Luc™ assay solution was then added to each well and the plate was immediately transferred to an ENVISION® plate reader to measure luminescence (Perkin-Elmer). Relative luminescence readings were converted to fold change of signal using untreated cells as controls. Data was fitted with non-linear regression analysis, using log (agonist) vs. response, variable slope, 4-parameter fit equation using GraphPad Prism. Data was expressed as fold change in signal vs. dose of STING agonist in nM with error bars indicating the Standard Deviation (SD) of the quadruplicates. There result was reported in Table 2 as EC50 (the midpoint of the curve, or concentration at which […] of the maximum effect was observed).
On the technique in general: Reporter assays use an easily measured gene product as a stand-in for the process of interest.

For another assay, the target named is T2, hSTING-R232 (Homo sapiens, UniProt Q86WV6, H232R).
T2 construct: host or cells: THP1-Dual KI-hSTING-R232 (from THP1-Dual KO-STING)
T2 sequence (Q86WV6 whole entry H232R): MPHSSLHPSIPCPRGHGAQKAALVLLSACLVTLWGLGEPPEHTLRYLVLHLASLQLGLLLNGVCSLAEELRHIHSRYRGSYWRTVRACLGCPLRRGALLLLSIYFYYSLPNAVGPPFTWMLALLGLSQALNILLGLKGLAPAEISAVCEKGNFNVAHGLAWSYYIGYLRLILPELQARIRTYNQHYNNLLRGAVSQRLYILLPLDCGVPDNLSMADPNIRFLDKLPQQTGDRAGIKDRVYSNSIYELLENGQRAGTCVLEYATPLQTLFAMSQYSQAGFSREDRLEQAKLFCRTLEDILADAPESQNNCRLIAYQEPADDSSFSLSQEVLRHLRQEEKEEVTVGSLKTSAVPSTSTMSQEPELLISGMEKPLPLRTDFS
Nature of the assay: THP1-Dual KI-hSTING-R232 reporter assay (IRF pathway, secreted Lucia luciferase). The note with it: THP1-Dual KI-hSTING-R232 cells, 24 hours; read-out: Reporter assay EC50 (nM) THP-1-R232. The procedure:
as §1
as §2, with “Serial dilutions of STING agonists free drugs (1:3 serial dilution starting from 5 uM) was added into treatment wells.” left out

For a further assay, the target named is T3, hSTING-HAQ haplotype (Homo sapiens, UniProt Q86WV6, G230A/H232R/R293Q/R71H).
T3 construct: host or cells: THP-1-Dual
T3 sequence (Q86WV6 whole entry R71H/G230A/H232R/R293Q): as the sequence (Q86WV6 whole entry H232R) above, with R71H, G230A, R293Q counted along it
Description: THP-1-Dual reporter assay (endogenous hSTING-HAQ). The settings on record: THP-1-Dual cells (hSTING-HAQ), 24 hours. The procedure:
as §1
as §2, with “Serial dilutions of STING agonists free drugs (1:3 serial dilution starting from 5 uM) was added into treatment wells.” left out

A further assay deals with hSTING H232 (Homo sapiens, UniProt Q86WV6). Description: THP1-Dual KI-hSTING-H232 reporter assay (IRF pathway, secreted Lucia luciferase). The arrangement: host or cells: THP1-Dual KI-hSTING-H232 (from THP1-Dual KO-STING). The settings on record: THP1-Dual KI-hSTING-H232 cells, 24 hours; read-out: Reporter assay EC50 (nM) THP-1-H232. The procedure: as §1
hSTING H232, sequence (Q86WV6 whole entry): as the sequence (Q86WV6 whole entry H232R) above, with R232H counted along it
as §2, with “Serial dilutions of STING agonists free drugs (1:3 serial dilution starting from 5 uM) was added into treatment wells.” left out

Bounds are passed on as bounds.

For the compound `CCn1nc(C)cc1C(=O)Nc1nc2cc(C(N)=O)cc(OC)c2n1C/C=C/Cn1c(NC(=O)Cc2cnc(C)o2)nc2cc(C(N)=O)cc(OCCCN3CC4(CNCCO4)C3)c21` [Compound 7], the 50% effective concentration (EC50) on mSTING, at hSTING-R232, on hSTING-HAQ haplotype and on hSTING H232 was greater than 150 nM throughout.
For the compound `CCn1nc(C)cc1C(=O)Nc1nc2cc(C(N)=O)cc(OC)c2n1C/C=C/Cn1c(NC(=O)Cc2cc(C)n(C)n2)nc2cc(C(N)=O)cc(OCCCN3CC4(CNCCO4)C3)c21` [Compound 9], the concentration for a half-maximal effect (EC50) at mSTING, on hSTING-R232, at hSTING-HAQ haplotype and on hSTING H232 was greater than 150 nM throughout.
Consider `CCc1nc(C)oc1C(=O)Nc1nc2cc(C(N)=O)cc(OCCCN3CC4(CNCCO4)C3)c2n1C/C=C/Cn1c(NC(=O)c2cc(C)nn2CC)nc2cc(C(N)=O)cc(OC)c21` [Compound 10], for which the concentration for a half-maximal effect (EC50) on mSTING, at hSTING-R232, at hSTING-HAQ haplotype and on hSTING H232 was no more than 50 nM throughout.
With `CCn1nc(C)cc1C(=O)Nc1nc2cc(C(N)=O)cc(OC)c2n1C/C=C/Cn1c(NC(=O)c2oc(C)nc2C)nc2cc(C(N)=O)cc(OCCCN3CC4(CNCCO4)C3)c21` [Compound 11], the half-maximal effective concentration (EC50) on mSTING was no more than 50 nM; on hSTING-R232, no more than 50 nM; at hSTING-HAQ haplotype, greater than 150 nM; at hSTING H232 it was no more than 50 nM.
With `CCn1nc(C)cc1C(=O)Nc1nc2cc(C(N)=O)cc(OC)c2n1C/C=C/Cn1c(NC(=O)C23CCC(C)(CC2)CC3)nc2cc(C(N)=O)cc(OCCCN3CC4(CNCCO4)C3)c21` [Compound 12], the EC50 at mSTING, on hSTING-R232, at hSTING-HAQ haplotype and at hSTING H232 was greater than 150 nM each time.
Regarding `CCn1nc(C)cc1C(=O)Nc1nc2cc(C(N)=O)cc(OC)c2n1C/C=C/Cn1c(NC(=O)c2cc(C)nn2C)nc2cc(C(N)=O)cc(OCCCN3CC4(CNCCO4)C3)c21` [Compound 13], the EC50 at mSTING, at hSTING-R232, on hSTING-HAQ haplotype and on hSTING H232 was no more than 50 nM throughout.
With `CCn1nc(C)cc1C(=O)Nc1nc2cc(C(N)=O)cc(OC)c2n1C/C=C/Cn1c(NC(=O)c2ccnn2CC)nc2cc(C(N)=O)cc(OCCCN3CC4(CNCCO4)C3)c21` [Compound 14], the concentration giving a half-maximal response (EC50) at mSTING, on hSTING-R232, on hSTING-HAQ haplotype and at hSTING H232 was no more than 50 nM throughout.
`CCc1cc(C(=O)Nc2nc3cc(C(N)=O)cc(OCCCN4CC5(CNCCO5)C4)c3n2C/C=C/Cn2c(NC(=O)c3cc(C)nn3CC)nc3cc(C(N)=O)cc(OC)c32)n(C)n1` [Compound 15]: the EC50 at mSTING, on hSTING-R232, at hSTING-HAQ haplotype and at hSTING H232 was greater than 150 nM throughout.
Regarding `CCn1nc(C)cc1C(=O)Nc1nc2cc(C(N)=O)cc(OC)c2n1C/C=C/Cn1c(NC(=O)c2cc(C)nn2CC)nc2cc(C(N)=O)cc(OCCCN3CC4(C3)CN(C(=O)[C@@H](N)CC(C)C)CCO4)c21` [Compound 16], the EC50 on mSTING, at hSTING-R232, on hSTING-HAQ haplotype and on hSTING H232 was no more than 50 nM each time.
As to `CCc1nc(C)oc1C(=O)Nc1nc2cc(C(N)=O)cc(OCCCN3CC4(C3)CN(C(=O)CNC)CCO4)c2n1C/C=C/Cn1c(NC(=O)c2cc(C)nn2CC)nc2cc(C(N)=O)cc(OC)c21` [Compound 18], the half-maximal effective concentration (EC50) is greater than 150 nM at mSTING, 50 to 150 nM at hSTING-R232, 50 to 150 nM at hSTING-HAQ haplotype and greater than 150 nM on hSTING H232.
Turning to `CCc1nc(C)oc1C(=O)Nc1nc2cc(C(N)=O)cc(OCCCN3CC4(C3)CN(C(=O)[C@H](CC(C)C)NC)CCO4)c2n1C/C=C/Cn1c(NC(=O)c2cc(C)nn2CC)nc2cc(C(N)=O)cc(OC)c21` [Compound 19], the EC50 at mSTING was no more than 50 nM; on hSTING-R232 it was no more than 50 nM; at hSTING-HAQ haplotype it was 50 to 150 nM; on hSTING H232, 50 to 150 nM.
Consider `CCc1nc(C)oc1C(=O)Nc1nc2cc(C(N)=O)cc(OCCCN3CC4(C3)CN(C(=O)[C@H](N)CC(C)C)CCO4)c2n1C/C=C/Cn1c(NC(=O)c2cc(C)nn2CC)nc2cc(C(N)=O)cc(OC)c21` [Compound 20], for which the EC50 on mSTING was no more than 50 nM; on hSTING-R232, no more than 50 nM; at hSTING-HAQ haplotype, 50 to 150 nM; on hSTING H232, 50 to 150 nM.
Turning to `CCc1nc(C)oc1C(=O)Nc1nc2cc(C(N)=O)cc(OCCCN3CC4(CNCCO4)C3)c2n1C/C=C/Cn1c(NC(=O)c2cc(C)nn2CC)nc2cc(C(N)=O)cnc21` [Compound 23], the EC50 at mSTING is 50 to 150 nM; at hSTING-R232, no more than 50 nM; on hSTING-HAQ haplotype, 50 to 150 nM; on hSTING H232, no more than 50 nM.
With `CCn1nc(C)cc1C(=O)Nc1nc2cc(C(N)=O)cc3c2n1C/C=C/Cn1c(NC(=O)c2cc(C)nn2CC)nc2cc(C(N)=O)cc(c21)OCC1(CNC1)CO3` [Compound 24, (3E)-7,25-bis[(2-ethyl-5-methyl-pyrazole-3-carbonyl)amino]spiro[14,18-dioxa-1,6,8,24-tetrazapentacyclo[17.6.1.16,9.023,26.013,27]heptacosa-3,7,9,11,13 (27), 19 (26), 20,22,24-nonaene-16,3′-azetidine]-11,21-dicarboxamide; 2,2,2-trifluoroacetic acid], the EC50 on mSTING was greater than 150 nM; at hSTING-R232, no more than 50 nM; on hSTING-HAQ haplotype, greater than 150 nM; at hSTING H232 it was 50 to 150 nM.
With `CCc1nc(C)oc1C(=O)Nc1nc2cc(C(N)=O)cc3c2n1C/C=C/Cn1c(NC(=O)c2oc(C)nc2CC)nc2cc(C(N)=O)cc(c21)OCC1(CNC1)CO3` [Compound 25], the concentration for a half-maximal effect (EC50) on mSTING was no more than 50 nM; at hSTING-R232, no more than 50 nM; at hSTING-HAQ haplotype it was greater than 150 nM; at hSTING H232 it was no more than 50 nM.

The record behind these values is patent publication US20250108048A1, “STING AGONIST COMPOUNDS AND CONJUGATES” (SUTRO BIOPHARMA, INC., priority 2023, published 2025).
